Experimental data from ChEMBL document CHEMBL1131700, “Synthesis and biological evaluation of novel cryptophycin analogs with modification in the beta-alanine region” (Bioorg Med Chem Lett, 1999).

Species: Homo sapiens
Assay: Antiproliferative activity was evaluated by the 72 hr MTT cell viability assay using human colon carcinoma cells (GC3).
Assay type: functional
Conditions: Homo sapiens, MTT, 72 h

Row | SMILES | IC50 [nM]
1 | COc1ccc(C[C@H]2NC(=O)/C=C/C[C@@H]([C@H](C)[C@H]3O[C@@H]3c3ccccc3)OC(=O)[C@H](CC(C)C)OC(=O)[C@H](Cc3ccccc3)NC2=O)cc1Cl | 1000
2 | COc1ccc(C[C@H]2NC(=O)/C=C/C[C@@H]([C@H](C)[C@H]3O[C@@H]3c3ccccc3)OC(=O)[C@H](CC(C)C)NC(=O)C[C@@H](C)NC2=O)cc1Cl | 0.06
3 | COc1ccc(C[C@H]2NC(=O)/C=C/C[C@@H]([C@H](C)[C@H]3O[C@@H]3c3ccccc3)OC(=O)[C@H](CC(C)C)OC(=O)C[C@@H](c3ccccc3)NC2=O)cc1Cl | 0.94
4 | COc1ccc(C[C@H]2NC(=O)/C=C/C[C@@H]([C@H](C)[C@H]3O[C@@H]3c3ccccc3)OC(=O)[C@H](CC(C)C)OC(=O)[C@H](C(C)C)NC2=O)cc1Cl | 306
5 | COc1ccc(C[C@H]2NC(=O)/C=C/C[C@@H]([C@H](C)[C@H]3O[C@@H]3c3ccccc3)OC(=O)[C@H](CC(C)C)OC(=O)c3ccccc3NC2=O)cc1Cl | 870
6 | COc1ccc(C[C@H]2NC(=O)/C=C/C[C@@H]([C@H](C)[C@H]3O[C@@H]3c3ccccc3)OC(=O)[C@H](CC(C)C)OC(=O)C[C@@H](CC(C)C)NC2=O)cc1Cl | 3
7 | COc1ccc(C[C@H]2NC(=O)/C=C/C[C@@H]([C@H](C)[C@H]3O[C@@H]3c3ccccc3)OC(=O)[C@H](CC(C)C)OC(=O)[C@@H]3CCCN3C2=O)cc1Cl | > 1500
8 | COc1ccc(C[C@H]2NC(=O)/C=C/C[C@@H]([C@H](C)[C@H]3O[C@@H]3c3ccccc3)OC(=O)[C@H](CC(C)C)OC(=O)[C@H](CC(C)C)NC2=O)cc1Cl | 320
9 | COc1ccc(C[C@H]2NC(=O)/C=C/C[C@@H]([C@H](C)[C@H]3O[C@@H]3c3ccccc3)OC(=O)[C@H](CC(C)C)OC(=O)[C@H](C)CNC2=O)cc1Cl [CRYPTOPHYCIN A] | 0.24
10 | COc1ccc(C[C@H]2NC(=O)/C=C/C[C@@H]([C@H](C)[C@H]3O[C@@H]3c3ccccc3)OC(=O)[C@H](CC(C)C)OC(=O)[C@H](C)NC2=O)cc1Cl | 13
11 | COc1ccc(C[C@H]2NC(=O)/C=C/C[C@@H]([C@H](C)[C@H]3O[C@@H]3c3ccccc3)OC(=O)[C@H](CC(C)C)OC(=O)[C@@H]3CCCCC3NC2=O)cc1Cl (some centres not stated) | 1.3
12 | COc1ccc(C[C@H]2NC(=O)/C=C/C[C@@H]([C@H](C)[C@H]3O[C@@H]3c3ccccc3)OC(=O)[C@H](CC(C)C)OC(=O)C(C)(C)CNC2=O)cc1Cl [CRYPTOPHYCIN 52] | 0.2
13 | COc1ccc(C[C@H]2NC(=O)/C=C/C[C@@H]([C@H](C)[C@H]3O[C@@H]3c3ccccc3)OC(=O)[C@H](CC(C)C)OC(=O)C[C@@H](Cc3ccccc3)NC2=O)cc1Cl | 5.2

Same assay, conditions: mtt

Row | SMILES | IC50 [nM]
14 | COc1ccc(C[C@H]2NC(=O)/C=C/C[C@@H]([C@H](C)[C@H]3O[C@@H]3c3ccccc3)OC(=O)[C@H](CC(C)C)OC(=O)C[C@@H](C)NC2=O)cc1Cl (stereo in doubt; 12b) | 0.03
15 | COc1ccc(C[C@H]2NC(=O)/C=C/C[C@@H]([C@H](C)[C@H]3O[C@@H]3c3ccccc3)OC(=O)[C@H](CC(C)C)OC(=O)C[C@@H](C)NC2=O)cc1Cl (stereo in doubt; 12a) | 0.4

Species: Mus musculus
Assay: Compound was tested for its antitumor activity in murine pancreatic adenocarcinoma PO3 model at the maximum tolerated dose(MTD)
Assay type: functional
Conditions: not given

Row | SMILES | T/C [%]
16 | COc1ccc(C[C@H]2NC(=O)/C=C/C[C@@H]([C@H](C)[C@H]3O[C@@H]3c3ccccc3)OC(=O)[C@H](CC(C)C)OC(=O)[C@H](C)CNC2=O)cc1Cl [CRYPTOPHYCIN A] | < 5
17 | COc1ccc(C[C@H]2NC(=O)/C=C/C[C@@H]([C@H](C)[C@H]3O[C@@H]3c3ccccc3)OC(=O)[C@H](CC(C)C)OC(=O)C(C)(C)CNC2=O)cc1Cl [CRYPTOPHYCIN 52] | < 5
